Reference: patent US20090270431A1, “Cyclopentenol Nucleoside Compounds Intermediates for their Synthesis and Methods of Treating Viral Infections” (THE UNIVERSITY OF GEORGIA RESEARCH FOUNDATION, priority 2005, published 2009)
Several values for one entry are separate records, joined by “and”; a condition that tells them apart may be missing. Identical values can stand only once. Like-named read-outs stand apart in the source and are kept apart here.

Assays:
[1] = tested on: Flu B; type: cell-based; conditions: MDCK
[2] = tested on: Hepatitis B Virus; assay: in vitro anti-HBV activity, VIR (extracellular virion HBV DNA); type: cell-based; conditions: HBV; VIR; Huh7 ET (Table 3)
Description: In the first biological experiment, a number of 7-deazaneplanocin compounds were tested in vitro to determine activity against hepatitis B virus (HBV).

[3] = tested on: Yellow Fever; assay: organism not typed; type: cell-based; conditions: YF, Vero, read-out: EC50
[4] = tested on: Vaccinia; assay: microbe, parasite or virus in culture; type: cell-based, vaccinia virus; conditions: VV; CPE; HFF Cells (Table 3); read-out: EC50
[5] = tested on: SARS; assay: organism not typed; type: cell-based; conditions: SARS, Vero 76, read-out: EC50
[6] = tested on: Tacaribe; type: cell-based; conditions: Vero 76
[7] = tested on: RVF; type: cell-based
[8] = tested on: Flu A (H3N2); assay: microbe, parasite or virus in culture; type: cell-based; conditions: Flu A (H3N2), MDCK, read-out: EC50
[9] = tested on: Cowpox; assay: microbe, parasite or virus in culture; type: cell-based, cowpox virus; conditions: Cowpox; CPE; HFF Cells (Table 3); read-out: EC50
[10] = tested on: VEE; type: cell-based
[11] = tested on: Flu A (H5N1); assay: microbe, parasite or virus in culture; type: cell-based; conditions: Flu A (H5N1), MDCK, read-out: EC50
[12] = tested on: Dengue; assay: antiviral assay, Dengue in Vero; type: cell-based
[13] = tested on: Flu A (H1N1); assay: microbe, parasite or virus in culture; type: cell-based; conditions: MDCK, read-out: EC50

SMILES: Nc1nccc2ncn([C@@H]3C=C(CO)[C@@H](O)[C@H]3O)c12 [Compound N7-3-DNPA]
- EC50 ([1]; NR): 34 µM
- EC50 ([1]; Visual): 8 µM
- EC50 [2]: > 10 µM
- EC50 ([3]; NR): > 100 µM
- EC50 ([3]; Visual): > 100 µM
- EC50 [4]: > 300 µM
- EC50 ([5]; NR (Neutral Red)): > 100 µM
- EC50 ([5]; Visual): > 100 µM
- EC50 ([6]; NR): 85 µM
- EC50 ([6]; Visual): 52 µM
- EC50 [7]: > 100 µM
- EC50 ([8]; NR): > 32 µM
- EC50 ([8]; Visual): > 32 µM
- EC50 [9]: 273 µM
- EC50 [10]: 84.6 µM and > 100 µM
- EC50 ([11]; NR): 29 µM
- EC50 ([11]; Visual): 32 µM
- EC50 ([12]; NR): > 100 µM
- EC50 ([12]; Visual): > 100 µM
- EC50 ([13]; NR): > 32 µM
- EC50 ([13]; Visual): > 32 µM
